Conditions: from C=CCOc1ccc(C[C@H](N)C(=O)NCc2cc(CSc3cc(SCc4cc(CNC(=O)[C@@H](N)Cc5ccc(OCC=C)cc5)cc(C(=O)Oc5c(F)c(F)c(F)c(F)c5F)c4)cc(SCc4cc(CNC(=O)[C@@H](N)Cc5ccc(OCC=C)cc5)cc(C(=O)Oc5c(F)c(F)c(F)c(F)c5F)c4)c3)cc(C(=O)Oc3c(F)c(F)c(F)c(F)c3F)c2)cc1; amide bond; N,N-diisopropylethylamine (pentafluorophenyl ester); THF; 2.3 mM; 25.0 °C; 45.0 h

Structure (SMILES): C=CCOc1ccc(C[C@@H]2NC(=O)c3cc4cc(c3)CSc3cc5cc(c3)SCc3cc(cc(c3)C(=O)N[C@@H](Cc3ccc(OCC=C)cc3)C(=O)NC4)CNC(=O)[C@H](Cc3ccc(OCC=C)cc3)NC(=O)c3cc(cc(c3)CS5)CNC2=O)cc1
- ring closure, yield of all isomers: 65%
